For test [1], the system named is GPX4 protein level in HT-1080 cells. As to the kind of experiment: Western blot GPX4 degradation study in HT-1080. Particulars: 1 μM RSL3, 1 μM ML162, 10 μM FIN56, 10 h, with 100 μM α-tocopherol. Format: cell-based, human. As to the method:
For the GPX4 degradation study, HT-1080 cells were seeded at 800,000 per well in a 60-mm plate and allowed to adhere overnight. Cells were then treated with 100 μM α-tocopherol and either 1 μM RSL3, 1 μM ML162, 10 μM IKE, 10 μM FIN56, or vehicle for 10 h. Cells were harvested with trypsin (Invitrogen, 25200-114), pelleted, and lysed with RIPA buffer.
For both experiments, cell lysates were blotted and imaged as previously described (Yang et al. 2014). Antibodies used were GPX4 (Abcam, ab125066, 1:250 dilution), actin (Cell Signaling, D18C11, 1:3,000 dilution), and GAPDH (Santa Cruz, sc-47724, 1:10,000 dilution). Results were quantified using a LI-COR Odyssey CLx IR scanner and GraphPad Prism 7.
For orientation: Immunoblotting shows a protein as a band on a membrane.

The target in test [2] is T1, GPX4^U46C (Homo sapiens, UniProt P36969, U73C).
T1 construct: His6 (N, cleaved yes); made in house; host or cells: E. coli BL21-Gold (DE3), M9 minimal medium with 15NH4Cl
T1 sequence (P36969 33-197 U73C): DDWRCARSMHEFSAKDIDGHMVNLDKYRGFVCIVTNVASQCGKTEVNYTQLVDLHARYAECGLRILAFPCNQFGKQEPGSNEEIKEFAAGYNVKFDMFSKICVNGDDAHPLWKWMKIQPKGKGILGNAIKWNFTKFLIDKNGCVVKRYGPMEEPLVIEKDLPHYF
Description: Thermal shift assay (screen of LOC library). It is filed as binding. To be noted: Table 1. As to the method:
To fully utilize the versatility shown by the […] site to accommodate structurally diverse compounds, we applied thermal shift assay to screen 9,719 compounds in the Lead-Optimized-Compound (LOC) library for in vitro binders of GPX4^U46C, which would shift the melting temperature of GPX4^U46C (|ΔTm|>2° C., FIG. 12D) (Kaplan et al. 2015).
Since the binding of small molecules may alter the thermostability of protein, we applied thermal shift assay to screen the LOC library, which determined binding of ligand from the change of the unfolding transition temperature (ΔTm) obtained in the presence of ligands relative to that obtained in the absence of ligands (Kaplan et al. 2015; Lo et al. 2004). For higher throughput purpose, we adapted the assay on 384-well PCR plate. With the assistance of Biomek Automated Liquid Handler (Beckman), 2 μl 10 mM stock solution (in 100% DMSO) of the each compound was transferred from 384-well library plates to 38 μl FPLC buffer (100 mM Tris pH 8.0, 300 mM NaCl, 3 mM TCEP) and mixed in each well of a 384-well mother plate. The compound solution was then dispensed, 12 μl per well, into three 384-well PCR plates. GPX4^U46C protein and Sypro orange were manually added to the plate, with the final concentrations of 5 μM and 5×, respectively, to make a volume of 20 μl per well right before thermal shift analysis of the specific plate. The thermal shift assay was performed on the ViiA 7 Real-Time PCR system (Thermo Fisher) with the thermal protocol: 25° for 15 s, Increase temp to 99° at a rate of 0.05°/sec, 99° for 15 sec. The fluorescence was recorded and analyzed by Protein Thermal Shift™ software. The mean |ΔTm| value for the biological triplicates were calculated and used for hit identification.

In test [3] the target is T2, GPX4 (Homo sapiens, UniProt P36969, U73C).
T2 sequence (P36969 33-197 U73C): T1 sequence (P36969 33-197 U73C)
As to the kind of experiment: Microscale thermophoresis (MST) binding to GPX4. The source says:
(§1) Therefore, we applied a strategy of computer-facilitated design, based on MD simulation (Desmond) and Glide docking (Schrödinger Suite), and experimental high-throughput screening of a lead-optimized compound library of 10,000 compounds (FIGS. 6A-6E). All candidates were first evaluated by thermal denaturation assay and microscale thermophoresis (MST) to validate binding to GPX4 (Table 1). Surface plasmon resonance (SPR) and isothermal titration calorimetry (ITC) were then applied to precisely measure their binding kinetics and affinities, while ^1H-^15N heteronuclear single-quantum coherence (HSQC) NMR spectroscopy informed us of binding sites. We optimized two GPX4-specific activity assays to examine enzymatic inhibitory effects of hit compounds—LC-MS-based substrate/product monitoring and an NADPH-coupled assay. […] Some L880 analogues were also synthesized and tested (Table 2).
For orientation: MST reads how a fluorescent partner responds to local heating, with and without ligand.

For test [4], the target named is T1, GPX4^U46C. As to the kind of experiment: 1H,15N-HSQC-NMR of 15N-labeled GPX4^U46C. Format: binding. To be noted: Table 1. The procedure: Uniformly ^15N-labeled GPX4^U46C protein with N-terminal His6 tag was prepared. The GPX4^U46C construct was expressed in E. coli BL21-Gold (DE3) cells (Stratagene) growing at 37° C. in M9 minimal medium supplemented with […] ampicillin, 2 mM MgSO4, […] CaCl2, 1× trace metals, 1×RPMI 1640 vitamin stock (Sigma-Aldrich, #R7256), […] biotin, […] thiamine hydrochloride, 4 g/L glucose, and 3 g/L ^15NH4Cl as the sole nitrogen source. The following induction, lysis, and protein purification was the same as for the non-isotope-labeled His-tagged GPX4^U46C described above, except the N-terminal His6 tag was removed by adding 5 U/mg thrombin before FPLC purification. The thrombin reaction was after a buffer exchange to remove imidazole, which otherwise would inhibit thrombin, and was allowed to proceed overnight at 4° C.
Then the protein solution was concentrated to 50 μM before testing. For HSQC of GPX4 with other inhibitors, 50 μM ^15N-labeled GPX4 was preincubated with 800 μM inhibitor to be tested for […] at room temperature in buffer (100 mM MES, 5 mM TCEP, pH 6.5). D20 (10%) was then added for the field frequency lock. The ^1H-^15N HSQC spectra were collected on Bruker Avance III 500 Ascend (500 MHz) spectrometers (Columbia University) at 298K. The ^1H carrier frequency was positioned at the water resonance. The ^15N carrier frequency was positioned at 115 ppm. The spectral width in the ^1H dimension was 7,500 Hz and the width in the ^15N dimension was 1,824.6 Hz. Suppression of water signal was accomplished using the WATERGATE sequence. Heteronuclear decoupling was accomplished using GARP decoupling scheme.

For test [5], the target named is T2, GPX4. As to the kind of experiment: Surface plasmon resonance (SPR). Format: binding. Particulars: Table 1.
Excerpt: as §1, with “These x-ray structures enabled further optimization of current inhibitors and the design of novel inhibitors targeting various binding sites on GPX4. Therefore,” for “Therefore,”
A general note: Surface plasmon resonance follows binding to a sensor surface in real time, without labels.

The target in test [6] is T3, GPX4 (Homo sapiens, UniProt P36969).
T3 sequence (P36969 1-170 isoform P36969-2): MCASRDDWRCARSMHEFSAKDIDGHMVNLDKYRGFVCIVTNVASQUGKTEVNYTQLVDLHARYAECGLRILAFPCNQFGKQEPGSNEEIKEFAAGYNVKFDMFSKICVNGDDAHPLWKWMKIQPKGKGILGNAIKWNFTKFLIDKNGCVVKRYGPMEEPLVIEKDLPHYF
Description: GPX4-specific enzymatic activity assay (LC-MS substrate/product, NADPH-coupled). It is filed as biochemical.
Excerpt: as §1, with “These x-ray structures enabled further optimization of current inhibitors and the design of novel inhibitors targeting various binding sites on GPX4. Therefore,” for “Therefore,”

Test [7] concerns the target T1, GPX4^U46C. As to the kind of experiment: Intact protein MALDI MS analysis, GPX4^U46C. It is filed as binding. To be noted: protein preincubated with excess inhibitor. The procedure: GPX4^U46C or GPX4^AllCys(−)-A46C protein was pre-incubated with DMSO control or the inhibitor to be tested prior to MALDI MS analysis: 50 μM GPX4 protein was incubated with 500 μM inhibitors in FPLC buffer (100 mM Tris pH 8.0, 300 mM NaCl, and 3 mM TCEP) with 5% DMSO at RT for 1 hour before transferring to 4° C. overnight.
1 μl of the ligand-free protein (pre-incubated with DMSO) or protein-inhibitor complex (pre-incubated with the inhibitor to be tested) was mixed with 9 μl of 10 mg/ml sinapinic acid in the matrix solution (70:30 water/acetonitrile, with 0.1% TFA). 1.0 μl of the final mix was deposited onto the target carrier and allowed to air dry. MALDI spectrum was recorded using Bruker ultrafleXtreme MALDI-TOF instrument. The range of m/z detection and suppression was adjusted to accommodate the molecular weight of target protein. 2000 Hz and 50% intensity was applied for the laser setting. For each sample, five cumulative spectra were collected and the sum was recorded for analysis. All MALDI spectra of protein-inhibitor complex were compared with ligand-free protein to determine the mass shift. Mass shifts were aligned with the mass of potential staying group of each inhibitor to conclude covalent binding.

Test [8] concerns the target T1, GPX4^U46C. Description: Co-crystal structure of GPX4^U46C with inhibitor. Format: binding. The procedure:
GPX4^U46C was pre-incubated with the covalent inhibitors before crystallization using the following specifically optimized condition.
RSL3 and ML162 condition: 50 μM GPX4^U46C incubated with 150 μM RSL3 or ML162 in the reaction buffer (20 mM Tris pH 9.0, 100 mM NaCl, 3 mM TCEP, 1.5% DMSO) at 15° C. for 1 hour before transferring to 4° C. overnight. CDS9 condition: 25 μM GPX4^U46C incubated with 2 mM CDS9 in the reaction buffer (100 mM Tris pH 9.0, 300 mM NaCl, 1 mM TCEP, 2% DMSO) at 37° C. for 2 hours before transferring to 4° C. overnight. TMT10 condition: 25 μM GPX4^U46C incubated with 2 mM TMT10 in the reaction buffer (100 mM Tris pH 9.0, 300 mM NaCl, 2% glycerol, 2% DMSO) at 37° C. for 4 hours before transferring to 4° C. overnight. MAC-5576 condition: 50 μM GPX4^U46C protein was incubated with 500 μM MAC-5576 in the reaction buffer (100 mM Tris pH 9.0, 300 mM NaCl, and 3 mM TCEP, 5% DMSO) at RT for 1 hour before transferring to 4° C. overnight.
After confirmation of covalent binding using intact protein MALDI MS analysis, the protein-inhibitor complex were exchanged into crystallization buffer (10 mM Tris pH 8.0, 5 mM TCEP) and concentrated to 5 mg/ml.

A word on the Kd: it is the constant that tells how readily two partners part at equilibrium.

Molecules are shown by their SMILES. Where two headings read alike, the source gives them in different places.

As to `O=S(=O)(NC1CCCCC1)c1ccc2c(c1)C(=NO)c1cc(S(=O)(=O)NC3CCCCC3)ccc1-2` [FIN56], the “degradation of endogenous GPX4” value in test [1] is given as “significantly promoted degradation of GPX4”.

Regarding `CC(C)(C(=O)[O][Sn]([CH3])([CH3])[CH3])N1C(=O)c2ccccc2C1=O` [LOC880], the Thermal shift entry in test [2] was “positive”. Besides, the equilibrium dissociation constant (Kd) in test [3] stood at 6.7 µM. Moreover, in test [3] (Table 1), the MST result is listed as “positive”. For the same molecule, in test [4], the Binding site result is given as “Allosteric Site 2” and the HSQC assay entry is reported as “positive”. In addition, the SPR result in test [5] is “positive”. Further, the GPX4 enzymatic assay result in test [6] is recorded as “positive”.

As for `CN(C)c1ccc(/C=C2\SC(N3CCN(CCO)CC3)=NC2=O)cc1` [LOC957], the Thermal shift entry in test [2] was “positive”. In addition, the MST result in test [3] (Table 1) was “positive”. Also, the equilibrium dissociation constant (Kd) in test [3] (Table 1, read-out: MST Kd) stood at 6.8 µM. In test [4], the Binding site result is listed as “Allosteric Site 2” and the HSQC assay entry is reported as “positive”. Further, the SPR entry in test [5] was “positive”. Also, the GPX4 enzymatic assay entry in test [6] is on record as “positive”.

`CN(C)C(=O)c1ccc2c(c1)NC(=O)C1CCCN21` (stereo not drawn) [LOC4873]: the Thermal shift entry in test [2] is recorded as “positive”. Also, the MST entry in test [3] (Table 1) was “positive”. Also, in test [3] (Table 1, read-out: MST Kd), the dissociation constant Kd was determined as 40 µM. In test [4], the Binding site entry is given as “Allosteric Site 2” and the HSQC assay entry is reported as “positive”. For the same molecule, in test [5], the SPR result is “positive”. In addition, the GPX4 enzymatic assay result in test [6] is “positive”.

As to `O=C(Oc1cncc(Cl)c1)c1cccs1` [MAC-5576], in test [7], the “covalent binding to GPX4^U46C by intact protein MALDI MS” value is listed as “able to covalently modify GPX4”. Moreover, the “binding site in co-crystal structure” value in test [8] is “bound to the cys66 allosteric site”.
